Measured values as given in patent publication US6358885B1, “Substituted phenylheterocyclic herbicides” (Mississippi State University, priority 1992, dated 2002).

How the values were obtained:
wheat = test: Test C preemergence/postemergence greenhouse plant response rating 0 to 100; type: in vivo, Triticum aestivum; settings: POSTEMERGENCE; for Plant response rating, Wheat: 0 to 100 scale
Text: (§1) The compounds evaluated in this test were formulated in a non-phytoxic solvent and applied to the soil surface before plant seedlings emerged (preemergence application), to water that covered the soil surface (flood application), and to plants that were in the one-to-four leaf stage (postemergence application). A sandy loam soil was used for the preemergence and postemergence tests, while a silt loam soil was used in the flood test. Water depth was approximately 2.5 cm for the flood test and was maintained at this level for the duration of the test. Plant species in the preemergence and postemergence tests consisted of barley (Hordeum vulgare), bedstraw (Galium aparine), blackgrass (Alopecurus myosuroides), chickweed (Stellaria media), corn (Zea mays), cotton (Gossypium hirsutum), crabgrass (Digitaria sanguinalis), downy brome (Bromus tectorum), giant foxtail (Setaria faberii), lambsquarters (Chenopodium album), morningglory (Ipomoea hederacea), pigweed ([…]), rape (Brassica napus), ryegrass (Lolium multiflorum), sorghum (Sorghum bicolor), soybean (Glycine max), speedwell (Veronica persica), sugar beet (Beta vulgaris), velvetleaf (Abutilon theophrasti), wheat (Triticum aestivum), wild buckwheat (Polygonum convolvulus), and wild oat (Avena fatua). All plant species were planted one day before application of the compound for the preemergence portion-of this test. Plantings of these species were adjusted to produce plants of appropriate size for the post-emergence portion of the test. […] All plant species were grown using normal greenhouse practices. Visual evaluations of injury expressed on treated plants, when compared to untreated controls, were recorded approximately fourteen to twenty one days after application of the test compound. […] A dash (-) response means no test result.

duck salad = test: Test C flood test plant response rating 0 to 100; type: in vivo, Heteranthera limosa; settings: for Plant response rating Duck salad: flood test species listed under POSTEMERGENCE, 0 to 100 scale
Text: as §1

bedstraw = test: Test B preemergence/postemergence greenhouse plant response rating 0 to 10; type: in vivo, Galium aparine; settings: 0 to 10 scale
Outline: (§2)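 Postemergence treatment of plants two to eighteen cm tall ran alongside preemergence treatment of planted seed, each using compound in a non-phytotoxic solvent.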

wild buckwheat = test: as above; type: in vivo, Polygonum convolvulus; settings: 0 to 10 scale
Outline: as §2

corn = test: Test C preemergence/postemergence greenhouse plant response rating 0 to 100; type: in vivo, Zea mays; settings: POSTEMERGENCE; for Plant response rating, Corn: 0 to 100 scale
Text: as §1

cocklebur = test: Test B preemergence/postemergence greenhouse plant response rating 0 to 10; type: in vivo, Xanthium pensylvanicum; settings: 0 to 10 scale
Outline: as §2

cheatgrass = test: as above; type: in vivo, Bromus secalinus; settings: 0 to 10 scale
Outline: as §2

sugar beet = test: Test C preemergence/postemergence greenhouse plant response rating 0 to 100; type: in vivo, Beta vulgaris; settings: POSTEMERGENCE; for Plant response rating, Sugar beet: 0 to 100 scale
Text: as §1

cotton = test: Test B preemergence/postemergence greenhouse plant response rating 0 to 10; type: in vivo, Gossypium hirsutum; settings: 0 to 10 scale
Outline: as §2

lambsquarters = test: Test C preemergence/postemergence greenhouse plant response rating 0 to 100; type: in vivo, Chenopodium album; settings: POSTEMERGENCE; for Plant response rating Lambsquarters: 0 to 100 scale
Text: as §1

blackgrass [1] = test: as above; type: in vivo, Alopecurus myosuroides; settings: POSTEMERGENCE; for Plant response rating, Blackgrass: 0 to 100 scale
Text: as §1

blackgrass [2] = test: Test B preemergence/postemergence greenhouse plant response rating 0 to 10; type: in vivo, Alopecurus myosuroides; settings: 0 to 10 scale
Outline: as §2

barley = test: as above; type: in vivo, Hordeum vulgare; settings: 0 to 10 scale
Outline: as §2

ryegrass = test: Test C preemergence/postemergence greenhouse plant response rating 0 to 100; type: in vivo, Lolium multiflorum; settings: POSTEMERGENCE; for Plant response rating Ryegrass: 0 to 100 scale
Text: as §1

rape = test: as above; type: in vivo, Brassica napus; settings: POSTEMERGENCE; for Plant response rating, Rape: 0 to 100 scale
Text: as §1

giant foxtail = test: as above; type: in vivo, Setaria faberii; settings: POSTEMERGENCE; for Plant response rating, Giant foxtail: 0 to 100 scale
Text: as §1

rice = test: Test B preemergence/postemergence greenhouse plant response rating 0 to 10; type: in vivo, Oryza sativa; settings: 0 to 10 scale
Outline: as §2

barnyardgrass = test: Test C flood test plant response rating 0 to 100; type: in vivo, Echinochloa crus-galli; settings: for Plant response rating Barnyardgrass 2: flood test species listed under POSTEMERGENCE, 0 to 100 scale
Text: as §1

[3] = POSTEMERGENCE section, flood test, Rate 4 g/ha
[4] = Rate 16 g/ha, under POSTEMERGENCE head (flood test species)

CCC(C)Oc1cc(-c2nn3c(c2Cl)CCCC3)c(F)cc1Cl (centres unmarked) [Compound 48]
Plant response rating, Wheat (wheat; 62 g/ha): 30 | Plant response rating, Wheat (wheat; 250 g/ha): 50 | Plant response rating (0 to 100), Wheat (wheat; Rate 4 g/ha): 10 | Plant response rating (0 to 100), Wheat (wheat; Rate 16 g/ha): 20 | Plant response rating (0 to 100), Duck salad (duck salad; [3]): 0 | Plant response rating (0 to 100), Duck salad (duck salad; [4]): 10 | Plant response rating Duck salad (duck salad; 62 g/ha): 60 | Plant response rating Duck salad (duck salad; 250 g/ha): 80 | Plant response rating, Bedstraw (bedstraw; POSTEMERGENCE, Rate 50 g/ha): 9 | Plant response rating, Bedstraw (bedstraw; POSTEMERGENCE, Rate 200 g/ha): 9 | Plant response rating, Bedstraw (bedstraw; PREEMERGENCE, Rate 50 g/ha): 3 | Plant response rating, Bedstraw (bedstraw; Rate 200 g/ha, PREEMERGENCE): 9 | Plant response rating, Wild buckwheat (wild buckwheat; POSTEMERGENCE, Rate 50 g/ha): 10 | Plant response rating, Wild buckwheat (wild buckwheat; PREEMERGENCE, Rate 50 g/ha): 9 | Plant response rating, Wild buckwheat (wild buckwheat; Rate 200 g/ha, POSTEMERGENCE): 9 | Plant response rating, Wild buckwheat (wild buckwheat; Rate 200 g/ha, PREEMERGENCE): 10 | Plant response rating, Corn (corn; 62 g/ha): 40 | Plant response rating, Corn (corn; 250 g/ha): 50 | Plant response rating (0 to 100), Corn (corn; Rate 4 g/ha): 10 | Plant response rating (0 to 100), Corn (corn; Rate 16 g/ha): 30 | Plant response rating, Cocklebur (cocklebur; POSTEMERGENCE, Rate 50 g/ha): 7 | Plant response rating, Cocklebur (cocklebur; POSTEMERGENCE, Rate 200 g/ha): 9 | Plant response rating, Cocklebur (cocklebur; Rate 200 g/ha, PREEMERGENCE): 0 | Plant response rating, Cheatgrass (cheatgrass; POSTEMERGENCE, Rate 50 g/ha): 6 | Plant response rating, Cheatgrass (cheatgrass; POSTEMERGENCE, Rate 200 g/ha): 7 | Plant response rating, Cheatgrass (cheatgrass; PREEMERGENCE, Rate 50 g/ha): 0 | Plant response rating, Cheatgrass (cheatgrass; Rate 200 g/ha, PREEMERGENCE): 2 | Plant response rating, Sugar beet (sugar beet; 62 g/ha): 100 | Plant response rating, Sugar beet (sugar beet; 250 g/ha): 100 | Plant response rating (0 to 100), Sugar beet (sugar beet; Rate 4 g/ha): 100 | Plant response rating (0 to 100), Sugar beet (sugar beet; Rate 16 g/ha): 100 | Plant response rating, Cotton (cotton; POSTEMERGENCE, Rate 50 g/ha): 10 | Plant response rating, Cotton (cotton; POSTEMERGENCE, Rate 200 g/ha): 10 | Plant response rating, Cotton (cotton; PREEMERGENCE, Rate 50 g/ha): 0 | Plant response rating, Cotton (cotton; Rate 200 g/ha, PREEMERGENCE): 9 | Plant response rating Lambsquarters (lambsquarters; 62 g/ha): 100 | Plant response rating Lambsquarters (lambsquarters; 250 g/ha): 100 | Plant response rating (0 to 100), Lambsquarters (lambsquarters; Rate 4 g/ha): 60 | Plant response rating (0 to 100), Lambsquarters (lambsquarters; Rate 16 g/ha): 60 | Plant response rating, Blackgrass (blackgrass [1]; 62 g/ha): 50 | Plant response rating, Blackgrass (blackgrass [1]; 250 g/ha): 60 | Plant response rating (0 to 100), Blackgrass (blackgrass [1]; Rate 4 g/ha): 20 | Plant response rating (0 to 100), Blackgrass (blackgrass [1]; Rate 16 g/ha): 30 | Plant response rating, Blackgrass (blackgrass [2]; POSTEMERGENCE, Rate 50 g/ha): 6 | Plant response rating, Blackgrass (blackgrass [2]; POSTEMERGENCE, Rate 200 g/ha): 6 | Plant response rating, Blackgrass (blackgrass [2]; PREEMERGENCE, Rate 50 g/ha): 0 | Plant response rating, Blackgrass (blackgrass [2]; Rate 200 g/ha, PREEMERGENCE): 5 | Plant response rating, Barley (barley; POSTEMERGENCE, Rate 50 g/ha): 7 | Plant response rating, Barley (barley; POSTEMERGENCE, Rate 200 g/ha): 5 | Plant response rating, Barley (barley; PREEMERGENCE, Rate 50 g/ha): 0 | Plant response rating, Barley (barley; Rate 200 g/ha, PREEMERGENCE): 0 | Plant response rating Ryegrass (ryegrass; 62 g/ha): 30 | Plant response rating Ryegrass (ryegrass; 250 g/ha): 50 | Plant response rating (0 to 100), Ryegrass (ryegrass; Rate 4 g/ha): 10 | Plant response rating (0 to 100), Ryegrass (ryegrass; Rate 16 g/ha): 20 | Plant response rating, Rape (rape; 62 g/ha): 50 | Plant response rating, Rape (rape; 250 g/ha): 90 | Plant response rating (0 to 100), Rape (rape; Rate 4 g/ha): 30 | Plant response rating (0 to 100), Rape (rape; Rate 16 g/ha): 30 | Plant response rating, Giant foxtail (giant foxtail; 62 g/ha): 40 | Plant response rating, Giant foxtail (giant foxtail; 250 g/ha): 90 | Plant response rating (0 to 100), Giant foxtail (giant foxtail; Rate 4 g/ha): 20 | Plant response rating (0 to 100), Giant foxtail (giant foxtail; Rate 16 g/ha): 30 | Plant response rating, Rice (rice; POSTEMERGENCE, Rate 50 g/ha): 3 | Plant response rating, Rice (rice; PREEMERGENCE, Rate 50 g/ha): 1 | Plant response rating, Rice (rice; Rate 200 g/ha, POSTEMERGENCE): 8 | Plant response rating, Rice (rice; Rate 200 g/ha, PREEMERGENCE): 2 | Plant response rating (0 to 100), Barnyardgrass 2 (barnyardgrass; [3]): 20 | Plant response rating (0 to 100), Barnyardgrass 2 (barnyardgrass; [4]): 40 | Plant response rating Barnyardgrass 2 (barnyardgrass; 62 g/ha): 95 | Plant response rating Barnyardgrass 2 (barnyardgrass; 250 g/ha): 100
